# “And” between values parts separate entries of the source, which are not always exact repeats. Equal values may be shown once.
# Test system: human colorectal adenocarcinoma (DLD-1) cells
# Experiment: MTT cytotoxicity assay, DLD-1
# Type: cell-based
# Conditions: cancer cell, 48 h, means of three independent experiments
# Source text: (§1) The cells studied were obtained from the American Type Culture Collection (ATCC, Manassas, VA), and included human colorectal adenocarcinoma (DLD-1), cervix carcinoma (HeLa), breast adenocarcinoma (MDA-MB-231), colon adenocarcinoma (HT-29), endometrial adenocarcinoma (ECC-1), prostate cancer (DU-145 and PC-3), normal embryonic kidney (HEK-293), normal prostate epithelium (PNT-1A), and normal retinal pigment epithelium (ARPE-19) cells. As recommended by ATCC, cells were subjected to propagation using DMEM-F12 and RPMI-1640 media, with supplements 10% fetal bovine serum, L-glutamine (2 mM), penicillin (100 U/mL) and streptomycin ([…]) in a humidified atmosphere (5% CO2) at 37 °C. When the cultures reached 70–80% confluence, the cells were harvested using 0.25% trypsin (Sigma).
# (§2) Cytotoxic activities were based on the reduction of (3–(4,5-dimethylthiazol-2-yl)-2,5-diphenyltetrazolium bromide) (MTT) by mitochondrial dehydrogenase of viable cells to give a blue formazan product which can be measured spectrophotometrically by UV–Vis measurements. MTT colorimetric assays were performed using 96 well plates. The cells were seeded in a 96 well plate at concentration 5.0 × 10^4 cells/well and incubated at 37 °C for 24 h. After treatment with various concentrations of the test compound (1, 5, 10, 25, 50, 100 and 200 μM), the cells were incubated for an additional 48 h at 37 °C. After incubation, the medium was removed, and the cells in each well were incubated with 100 μL MTT solution (5 mg/mL) for 4 h at 37 °C. MTT solutions were then discarded, and 100 μL DMSO were added to dissolve insoluble formazan crystals. Optical densities were measured at 570 nm (Varioskan Flash Multimode Reader, Thermo, Waltham, MA). Data were obtained from triplicate wells. Cytotoxic effects were determined in reference to negative controls (vehicle treated cells). Cytotoxicity was expressed as the mean percentage increase relative to the unexposed control (mean ± SD). All statistical analyses were performed using SPSS package program for Windows (Version 20, Chicago, IL). Control values were set to 0% cytotoxicity. Cytotoxicity data, where appropriate, were fitted to sigmoidal curves and a four-parameter logistic model was used to calculate the IC50 values, the concentration of material causing 50% inhibition, compared to the untreated controls. 5-Fluorouracil (5-FU) was also used as a control agent[21]^,[22].
row,Structure (SMILES),IC50 [µM]
1,COc1ccc(N=N[N]([Ag][O]C(C)=O)c2cccc(S(N)(=O)=O)c2)cc1OC [Compound L4-Ag],173 ± 10.3
2,COc1ccc([N+]2=N[N](c3cccc(S(N)(=O)=O)c3)[Cu-]2([O]C(C)=O)[O]C(C)=O)cc1OC [Compound L4-Cu],58.4 ± 5.8
3,CC(=O)[O][Ag][N](N=Nc1cc(C)cc(C)c1)c1cccc(S(N)(=O)=O)c1 [Compound L5-Ag],111 ± 9
4,CC(=O)[O][Cu-]1([O]C(C)=O)[N](c2cccc(S(N)(=O)=O)c2)N=[N+]1c1cc(C)cc(C)c1 [Compound L5-Cu],58.8 ± 3.9

# Test system: cervix carcinoma (HeLa) cells
# Experiment: MTT cytotoxicity assay, HeLa
# Type: cell-based, human
# Conditions: cancer cell, MTT, 48 h, means of three independent experiments
# Source text: as §1, §2
row,Structure (SMILES),IC50
1,COc1ccc(N=N[N]([Ag][O]C(C)=O)c2cccc(S(N)(=O)=O)c2)cc1OC [Compound L4-Ag],139 ± 28 µM
2,COc1ccc([N+]2=N[N](c3cccc(S(N)(=O)=O)c3)[Cu-]2([O]C(C)=O)[O]C(C)=O)cc1OC [Compound L4-Cu],116 ± 9.2 µM
3,CC(=O)[O][Ag][N](N=Nc1cc(C)cc(C)c1)c1cccc(S(N)(=O)=O)c1 [Compound L5-Ag],9.61 µM and 9.6 µM
4,CC(=O)[O][Cu-]1([O]C(C)=O)[N](c2cccc(S(N)(=O)=O)c2)N=[N+]1c1cc(C)cc(C)c1 [Compound L5-Cu],15.2 ± 1 µM

# Test system: breast adenocarcinoma (MDA-MB-231) cells
# Experiment: MTT cytotoxicity assay, MDA-MB-231
# Type: cell-based, human
# Conditions: cancer cell, 48 h, means of three independent experiments
# Source text: as §1, §2
row,Structure (SMILES),IC50 [µM]
1,COc1ccc(N=N[N]([Ag][O]C(C)=O)c2cccc(S(N)(=O)=O)c2)cc1OC [Compound L4-Ag],> 300
2,COc1ccc([N+]2=N[N](c3cccc(S(N)(=O)=O)c3)[Cu-]2([O]C(C)=O)[O]C(C)=O)cc1OC [Compound L4-Cu],206 ± 25.1
3,CC(=O)[O][Ag][N](N=Nc1cc(C)cc(C)c1)c1cccc(S(N)(=O)=O)c1 [Compound L5-Ag],148 ± 19.5
4,CC(=O)[O][Cu-]1([O]C(C)=O)[N](c2cccc(S(N)(=O)=O)c2)N=[N+]1c1cc(C)cc(C)c1 [Compound L5-Cu],26 ± 2.5

# Test system: colon adenocarcinoma (HT-29) cells
# Experiment: MTT cytotoxicity assay, HT-29
# Type: cell-based, human
# Conditions: cancer cell, 48 h, means of three independent experiments
# Source text: as §1, §2
row,Structure (SMILES),IC50 [µM]
1,COc1ccc(N=N[N]([Ag][O]C(C)=O)c2cccc(S(N)(=O)=O)c2)cc1OC [Compound L4-Ag],241 ± 28.5
2,COc1ccc([N+]2=N[N](c3cccc(S(N)(=O)=O)c3)[Cu-]2([O]C(C)=O)[O]C(C)=O)cc1OC [Compound L4-Cu],199 ± 22.5
3,CC(=O)[O][Ag][N](N=Nc1cc(C)cc(C)c1)c1cccc(S(N)(=O)=O)c1 [Compound L5-Ag],162 ± 16.1
4,CC(=O)[O][Cu-]1([O]C(C)=O)[N](c2cccc(S(N)(=O)=O)c2)N=[N+]1c1cc(C)cc(C)c1 [Compound L5-Cu],84.4 ± 8.4

# Test system: endometrial adenocarcinoma (ECC-1) cells
# Experiment: MTT cytotoxicity assay, ECC-1
# Type: cell-based, human
# Conditions: cancer cell, 48 h, means of three independent experiments
# Source text: as §1, §2
row,Structure (SMILES),IC50 [µM]
1,COc1ccc(N=N[N]([Ag][O]C(C)=O)c2cccc(S(N)(=O)=O)c2)cc1OC [Compound L4-Ag],104 ± 10.3
2,COc1ccc([N+]2=N[N](c3cccc(S(N)(=O)=O)c3)[Cu-]2([O]C(C)=O)[O]C(C)=O)cc1OC [Compound L4-Cu],308 ± 34.2
3,CC(=O)[O][Ag][N](N=Nc1cc(C)cc(C)c1)c1cccc(S(N)(=O)=O)c1 [Compound L5-Ag],136 ± 13.5
4,CC(=O)[O][Cu-]1([O]C(C)=O)[N](c2cccc(S(N)(=O)=O)c2)N=[N+]1c1cc(C)cc(C)c1 [Compound L5-Cu],97.6 ± 9.7

# Test system: prostate cancer (DU-145) cells
# Experiment: MTT cytotoxicity assay, DU-145
# Type: cell-based, human
# Conditions: cancer cell, MTT, 48 h, means of three independent experiments; read-out: IC50 DU-145
# Source text: as §1, §2
row,Structure (SMILES),IC50 [µM]
1,COc1ccc(N=N[N]([Ag][O]C(C)=O)c2cccc(S(N)(=O)=O)c2)cc1OC [Compound L4-Ag],237 ± 28.5
2,COc1ccc([N+]2=N[N](c3cccc(S(N)(=O)=O)c3)[Cu-]2([O]C(C)=O)[O]C(C)=O)cc1OC [Compound L4-Cu],160 ± 18
3,CC(=O)[O][Ag][N](N=Nc1cc(C)cc(C)c1)c1cccc(S(N)(=O)=O)c1 [Compound L5-Ag],100 ± 10.1
4,CC(=O)[O][Cu-]1([O]C(C)=O)[N](c2cccc(S(N)(=O)=O)c2)N=[N+]1c1cc(C)cc(C)c1 [Compound L5-Cu],32.4 ± 3.2

# Test system: prostate cancer (PC-3) cells
# Experiment: MTT cytotoxicity assay, PC-3
# Type: cell-based, human
# Conditions: cancer cell, 48 h, means of three independent experiments
# Source text: as §1, §2
row,Structure (SMILES),IC50 [µM]
1,COc1ccc(N=N[N]([Ag][O]C(C)=O)c2cccc(S(N)(=O)=O)c2)cc1OC [Compound L4-Ag],137 ± 15.8
2,COc1ccc([N+]2=N[N](c3cccc(S(N)(=O)=O)c3)[Cu-]2([O]C(C)=O)[O]C(C)=O)cc1OC [Compound L4-Cu],297 ± 32.4
3,CC(=O)[O][Ag][N](N=Nc1cc(C)cc(C)c1)c1cccc(S(N)(=O)=O)c1 [Compound L5-Ag],112 ± 13.4
4,CC(=O)[O][Cu-]1([O]C(C)=O)[N](c2cccc(S(N)(=O)=O)c2)N=[N+]1c1cc(C)cc(C)c1 [Compound L5-Cu],79.2 ± 8.5

# Test system: normal embryonic kidney (HEK-293) cells
# Experiment: MTT cytotoxicity assay, HEK-293
# Type: cell-based, human
# Conditions: normal cell, 48 h, means of three independent experiments
# Source text: as §1, §2
row,Structure (SMILES),IC50 [µM]
1,COc1ccc(N=N[N]([Ag][O]C(C)=O)c2cccc(S(N)(=O)=O)c2)cc1OC [Compound L4-Ag],5.5 ± 0.6
2,COc1ccc([N+]2=N[N](c3cccc(S(N)(=O)=O)c3)[Cu-]2([O]C(C)=O)[O]C(C)=O)cc1OC [Compound L4-Cu],197 ± 23.5
3,CC(=O)[O][Ag][N](N=Nc1cc(C)cc(C)c1)c1cccc(S(N)(=O)=O)c1 [Compound L5-Ag],30.5 ± 4.5
4,CC(=O)[O][Cu-]1([O]C(C)=O)[N](c2cccc(S(N)(=O)=O)c2)N=[N+]1c1cc(C)cc(C)c1 [Compound L5-Cu],36.3 ± 3.6

# Test system: normal prostate epithelium (PNT-1A) cells
# Experiment: MTT cytotoxicity assay, PNT-1A
# Type: cell-based, human
# Conditions: normal cell, 48 h, means of three independent experiments, read-out: IC50 PNT-1A
# Source text: as §1, §2
row,Structure (SMILES),IC50 [µM]
1,COc1ccc(N=N[N]([Ag][O]C(C)=O)c2cccc(S(N)(=O)=O)c2)cc1OC [Compound L4-Ag],139 ± 16.5
2,COc1ccc([N+]2=N[N](c3cccc(S(N)(=O)=O)c3)[Cu-]2([O]C(C)=O)[O]C(C)=O)cc1OC [Compound L4-Cu],125 ± 14.8
3,CC(=O)[O][Ag][N](N=Nc1cc(C)cc(C)c1)c1cccc(S(N)(=O)=O)c1 [Compound L5-Ag],111 ± 11
4,CC(=O)[O][Cu-]1([O]C(C)=O)[N](c2cccc(S(N)(=O)=O)c2)N=[N+]1c1cc(C)cc(C)c1 [Compound L5-Cu],46.4 ± 4.6

# Test system: normal retinal pigment epithelium (ARPE-19) cells
# Experiment: MTT cytotoxicity assay, ARPE-19
# Type: cell-based, human
# Conditions: normal cell, 48 h, means of three independent experiments
# Source text: as §1, §2
row,Structure (SMILES),IC50 [µM]
1,COc1ccc(N=N[N]([Ag][O]C(C)=O)c2cccc(S(N)(=O)=O)c2)cc1OC [Compound L4-Ag],285 ± 30.5
2,COc1ccc([N+]2=N[N](c3cccc(S(N)(=O)=O)c3)[Cu-]2([O]C(C)=O)[O]C(C)=O)cc1OC [Compound L4-Cu],105 ± 13.5
3,CC(=O)[O][Ag][N](N=Nc1cc(C)cc(C)c1)c1cccc(S(N)(=O)=O)c1 [Compound L5-Ag],109 ± 11
4,CC(=O)[O][Cu-]1([O]C(C)=O)[N](c2cccc(S(N)(=O)=O)c2)N=[N+]1c1cc(C)cc(C)c1 [Compound L5-Cu],84.3 ± 8.4

# From paper PMC6211257, “Synthesis and cytotoxic activities of novel copper and silver complexes of 1,3-diaryltriazene-substituted sulfonamides” (Journal of Enzyme Inhibition and Medicinal Chemistry, 2018)
